Measurements as given in patent US10421754B2, “Quinazoline derivative” (CSPC ZHONGQI PHARMACEUTICAL TECHNOLOGY (SHIJIAZHUANG) CO., …, priority 2014, dated 2019).

Columns and labels:
HUVEC = experiment: In vitro cell experiment (MTT), HUVEC; format: cell-based; conditions: 72 h, human umbilical vein endothelial cell (KDR overexpressing)
Method: (§1) Cells in logarithmic growth phase were seeded at a certain density in a 96-well plate (200 μL/well). The cells were allowed to grow for 24 h and subsequently treated with different concentrations of drugs (including a blank group and a control group) and incubated for 72 h at 37° C. Each concentration in a given experiment was tested in triplicate. After 72 h of exposure, 20 μL of the MTT labeling reagent was added to the medium (the final concentration of MTT was 0.5 mg/mL), and the cells were incubated for additional 4 h at 37° C. Following this process, 180 μL of the medium was removed and 130 μL of DMSO was added to each well, or the medium was completely removed and 150 μL of DMSO was added to each well. Then the plate was shaken and mixed in a micro-oscillator. Finally the optical density (OD) of each sample was measured in a micro-plate reader at 550 nm. Cell inhibition rate was calculated according to the following formula: […]
(§2) According to cell inhibition rates, IC50 was calculated by LOGIT method. The experiments were repeated twice and the data was expressed as means±SD.

CFPAC-1 = experiment: In vitro cell experiment (MTT), CFPAC-1; format: cell-based; conditions: 72 h, human pancreatic carcinoma cells
Method: as §1, §2

A375 = experiment: In vitro cell experiment (MTT), A375; format: cell-based; conditions: A-375, 72 h, human melanoma cells (KDR expressing)
Method: as §1, §2

Bel-7402 = experiment: In vitro cell experiment (MTT), Bel-7402; format: cell-based; conditions: 72 h, human hepatoma carcinoma cells
Method: as §1, §2

FGFR-1 = FGFR-1 (Homo sapiens, UniProt P11362); experiment: In vitro enzyme experiment (ELISA), FGFR-1; format: biochemical; conditions: Poly (Glu, Tyr)4:1 substrate, 5 μM ATP
Method: FGFR-1: Fibroblast growth factor receptor 1
(§3) ELISA: The enzyme plate was coated by enzyme reaction substrate (Poly (Glu, Tyr)4:1) at a density of 20 μg/ml. Then the enzyme, the sample and 5 μM ATP were mixed in the well to react. After the reaction, the substrate phosphorylation was detected by anti-phosphotyrosine monoclonal antibody (4G10). In the next step, the goat-anti-mouse IgG linking with horse radish peroxidase (HRP) and tetramethylbenzidine (TMB) were added sequentially in the well to evaluate the level of substrate phosphorylation by the degree of color depth. In the experiment, a blank group without tyrosine kinase and a control group with the corresponding concentration of DMSO were established. Finally, 50 μL/well of H2SO4 at a concentration of 0.18M was added in each well to stop the reaction. The optical density (OD) of each sample was measured in a micro-plate reader at 450 nm.
(§4) The relative inhibition rate of the compound against tyrosine kinase protein was determined.
(§5) According to the inhibition rates at different concentrations, IC50 was calculated by LOGIT method. The experiments were repeated three times, and the average of three IC50 values was the final index to evaluate the ability of inhibition.

Eca109 = experiment: In vitro cell experiment (MTT), Eca109; format: cell-based; conditions: ECa-109, 72 h, human esophageal carcinoma cells
Method: as §1, §2

SK-OV-3 = experiment: In vitro cell experiment (MTT), SK-OV-3; format: cell-based; conditions: 72 h, human ovarian carcinoma cells (EGFR2 overexpressing)
Method: as §1, §2

A549 = experiment: In vitro cell experiment (MTT), A549; format: cell-based; conditions: 72 h, human non-small-cell lung carcinoma cells (EGFR1 wildtype)
Method: as §1, §2

KDR = KDR (Homo sapiens, UniProt P35968); experiment: In vitro enzyme experiment (ELISA), KDR; format: biochemical; conditions: Poly (Glu, Tyr)4:1 substrate, 5 μM ATP
Method: KDR: Human vascular endothelial growth factor receptor 2
as §3, §4, §5

A431 = experiment: In vitro cell experiment (MTT), A431; format: cell-based; conditions: A-431, 72 h, human epidermoid carcinoma (EGFR1 overexpressing)
Method: as §1, §2

SGC7901 = experiment: In vitro cell experiment (MTT), SGC7901; format: cell-based; conditions: SGC-7901, 72 h, human gastric carcinoma cells
Method: as §1, §2

EGFR = EGFR (Homo sapiens, UniProt P00533); experiment: In vitro enzyme experiment (ELISA), EGFR; format: biochemical; conditions: Poly (Glu, Tyr)4:1 substrate, 5 μM ATP
Sequence of EGFR (P00533 25-1210): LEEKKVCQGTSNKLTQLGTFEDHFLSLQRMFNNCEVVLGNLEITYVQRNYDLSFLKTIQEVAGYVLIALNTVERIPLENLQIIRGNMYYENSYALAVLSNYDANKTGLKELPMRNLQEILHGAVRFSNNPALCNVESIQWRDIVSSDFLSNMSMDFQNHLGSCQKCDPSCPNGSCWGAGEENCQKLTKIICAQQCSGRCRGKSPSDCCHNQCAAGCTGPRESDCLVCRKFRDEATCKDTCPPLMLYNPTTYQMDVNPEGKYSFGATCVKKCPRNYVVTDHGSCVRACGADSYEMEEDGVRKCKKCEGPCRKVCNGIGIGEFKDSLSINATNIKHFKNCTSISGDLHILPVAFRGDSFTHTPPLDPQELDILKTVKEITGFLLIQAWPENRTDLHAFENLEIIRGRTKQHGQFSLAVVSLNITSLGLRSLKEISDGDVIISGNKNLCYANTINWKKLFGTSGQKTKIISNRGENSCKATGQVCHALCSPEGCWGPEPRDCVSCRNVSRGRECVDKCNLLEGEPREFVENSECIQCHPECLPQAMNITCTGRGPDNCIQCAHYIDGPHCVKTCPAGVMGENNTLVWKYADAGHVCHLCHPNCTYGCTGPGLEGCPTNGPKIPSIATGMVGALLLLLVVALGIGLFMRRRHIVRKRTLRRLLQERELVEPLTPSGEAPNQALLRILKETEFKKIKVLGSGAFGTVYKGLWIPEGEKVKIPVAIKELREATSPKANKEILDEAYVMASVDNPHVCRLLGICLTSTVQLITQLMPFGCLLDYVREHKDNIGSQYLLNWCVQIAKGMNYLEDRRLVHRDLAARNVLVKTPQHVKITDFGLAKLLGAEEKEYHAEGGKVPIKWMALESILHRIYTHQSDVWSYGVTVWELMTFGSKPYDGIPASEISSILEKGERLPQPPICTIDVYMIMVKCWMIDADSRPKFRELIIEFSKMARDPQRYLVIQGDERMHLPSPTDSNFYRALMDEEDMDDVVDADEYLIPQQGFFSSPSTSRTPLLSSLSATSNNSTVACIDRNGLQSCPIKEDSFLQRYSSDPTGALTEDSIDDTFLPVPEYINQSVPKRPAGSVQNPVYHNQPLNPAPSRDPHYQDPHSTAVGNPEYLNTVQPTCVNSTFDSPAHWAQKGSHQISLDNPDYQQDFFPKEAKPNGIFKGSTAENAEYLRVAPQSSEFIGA
Method: EGFR: Human epidermal growth factor receptor 1
as §3, §4, §5

[1] = Mouse maximum tolerated dose (MTD) experiment; conditions: in vivo, mice, oral, administered 7 days then observed 7 days
Method: In the mouse MTD experiment, the mice were administrated with the present compounds.
Healthy mice, having a small difference in body's weights, were chosen. The chosen mice were placed in different layers of cages according to their body's weights. In each layer, the mice were randomly divided into groups. In each group, there were three mice.
The administration dosages were 1000, 500, 250, 125, 62.5 and 31.25 mg/kg respectively and each two dosages differed by a factor of 2. For each of administration dosages, three mice were allotted. The mice were administrated with the present compounds for 7 days and then observed for the next 7 days without the present compounds.
The present compounds were orally administrated with the mice according to the administration dosage and the body weight.

HCC827 = experiment: In vitro cell experiment (MTT), HCC827; format: cell-based; conditions: 72 h, human non-small cell lung carcinoma (EGFR1 19 exon mutation)
Method: as §1, §2

RET = RET (Homo sapiens, UniProt P07949); experiment: In vitro enzyme experiment (ELISA), RET; format: biochemical; conditions: Poly (Glu, Tyr)4:1 substrate, 5 μM ATP
Sequence of RET (P07949 29-1114, species assumed): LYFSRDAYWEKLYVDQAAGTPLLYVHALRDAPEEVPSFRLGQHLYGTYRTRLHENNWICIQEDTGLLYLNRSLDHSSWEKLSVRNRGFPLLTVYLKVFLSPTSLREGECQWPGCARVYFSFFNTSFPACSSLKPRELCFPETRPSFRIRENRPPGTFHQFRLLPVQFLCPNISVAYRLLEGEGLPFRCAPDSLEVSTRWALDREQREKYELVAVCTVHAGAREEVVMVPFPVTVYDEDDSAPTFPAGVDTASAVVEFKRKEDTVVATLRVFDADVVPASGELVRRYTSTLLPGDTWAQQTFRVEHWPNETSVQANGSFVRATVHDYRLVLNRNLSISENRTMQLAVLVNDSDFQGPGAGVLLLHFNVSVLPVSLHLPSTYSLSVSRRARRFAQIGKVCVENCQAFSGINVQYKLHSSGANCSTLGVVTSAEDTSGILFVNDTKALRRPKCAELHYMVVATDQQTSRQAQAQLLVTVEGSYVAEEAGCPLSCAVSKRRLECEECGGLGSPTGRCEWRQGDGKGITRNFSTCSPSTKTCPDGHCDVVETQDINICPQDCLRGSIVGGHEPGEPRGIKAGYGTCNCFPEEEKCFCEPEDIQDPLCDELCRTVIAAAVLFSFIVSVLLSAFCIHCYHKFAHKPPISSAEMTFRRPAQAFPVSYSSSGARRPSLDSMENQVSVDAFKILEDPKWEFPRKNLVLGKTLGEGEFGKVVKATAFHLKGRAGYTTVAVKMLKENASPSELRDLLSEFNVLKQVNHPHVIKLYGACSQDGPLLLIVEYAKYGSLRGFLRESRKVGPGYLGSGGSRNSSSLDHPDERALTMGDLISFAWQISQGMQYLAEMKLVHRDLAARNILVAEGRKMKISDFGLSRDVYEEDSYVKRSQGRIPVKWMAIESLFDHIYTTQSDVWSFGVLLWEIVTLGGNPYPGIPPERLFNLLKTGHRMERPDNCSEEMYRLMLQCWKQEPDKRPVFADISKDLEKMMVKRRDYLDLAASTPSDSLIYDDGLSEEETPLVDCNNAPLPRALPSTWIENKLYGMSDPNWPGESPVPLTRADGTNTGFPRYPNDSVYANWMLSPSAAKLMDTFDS
Method: RET: A receptor involved in thyroid cancer
as §3, §4, §5

A498 = experiment: In vitro cell experiment (MTT), A498; format: cell-based; conditions: 72 h, human renal carcinoma cells
Method: as §1, §2

BTK = BTK (Homo sapiens, UniProt Q06187); experiment: In vitro enzyme experiment (ELISA), BTK; format: biochemical; conditions: Poly (Glu, Tyr)4:1 substrate, 5 μM ATP
Sequence of BTK (Q06187 whole entry, species assumed): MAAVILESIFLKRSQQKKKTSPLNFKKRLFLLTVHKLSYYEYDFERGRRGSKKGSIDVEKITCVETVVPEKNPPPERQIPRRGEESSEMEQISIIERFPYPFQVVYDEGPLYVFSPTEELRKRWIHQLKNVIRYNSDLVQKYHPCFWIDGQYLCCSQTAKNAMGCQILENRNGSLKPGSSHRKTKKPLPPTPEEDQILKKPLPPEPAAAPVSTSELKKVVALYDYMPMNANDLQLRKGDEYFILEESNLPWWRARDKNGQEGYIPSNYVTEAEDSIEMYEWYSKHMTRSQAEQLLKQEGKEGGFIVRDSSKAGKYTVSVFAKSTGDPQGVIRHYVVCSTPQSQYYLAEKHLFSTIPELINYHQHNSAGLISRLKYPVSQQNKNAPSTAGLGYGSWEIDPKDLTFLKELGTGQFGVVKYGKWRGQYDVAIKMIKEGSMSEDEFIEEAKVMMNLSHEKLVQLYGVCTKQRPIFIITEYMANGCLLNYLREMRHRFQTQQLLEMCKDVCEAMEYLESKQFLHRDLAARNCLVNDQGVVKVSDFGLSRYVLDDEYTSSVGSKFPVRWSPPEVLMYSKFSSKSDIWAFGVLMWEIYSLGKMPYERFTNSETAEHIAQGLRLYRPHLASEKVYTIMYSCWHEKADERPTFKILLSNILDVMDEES
Method: BTK: Bruton tyrosine kinase
as §3, §4, §5

H292 = experiment: In vitro cell experiment (MTT), H292; format: cell-based; conditions: NCI-H292, 72 h, human lung carcinoma cells (EGFR1 overexpressing)
Method: as §1, §2

AXL = AXL (Homo sapiens, UniProt P30530); experiment: In vitro enzyme experiment (ELISA), AXL; format: biochemical; conditions: Poly (Glu, Tyr)4:1 substrate, 5 μM ATP
Sequence of AXL (P30530 473-894): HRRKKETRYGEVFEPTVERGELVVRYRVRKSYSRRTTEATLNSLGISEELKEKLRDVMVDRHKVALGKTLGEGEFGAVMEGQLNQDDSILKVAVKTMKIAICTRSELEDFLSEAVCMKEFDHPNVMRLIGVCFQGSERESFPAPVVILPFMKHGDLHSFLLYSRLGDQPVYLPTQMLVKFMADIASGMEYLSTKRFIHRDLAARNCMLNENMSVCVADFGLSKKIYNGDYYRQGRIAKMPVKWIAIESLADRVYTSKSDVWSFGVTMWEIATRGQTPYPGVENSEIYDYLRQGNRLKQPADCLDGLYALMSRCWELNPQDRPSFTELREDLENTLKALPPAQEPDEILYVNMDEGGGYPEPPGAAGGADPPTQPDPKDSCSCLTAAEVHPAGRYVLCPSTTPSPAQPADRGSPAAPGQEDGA
Method: as §3, with “AXL: Anaplastic lymphoma kinase Methods: ELISA:” for “ELISA:”, “nm. The relative inhibition rate of the compound against tyrosine kinase protein was determined. According to the inhibition rates at different concentrations, IC50 was calculated by LOGIT method. The experiments were repeated three times, and the average of three IC50 values was the final index to evaluate the ability of inhibition.” for “nm.”

TT = experiment: In vitro cell experiment (MTT), TT; format: cell-based; conditions: 72 h, human thyroid carcinoma cells (RET C634W mutation)
Method: as §1, §2

HT-29 = experiment: In vitro cell experiment (MTT), HT-29; format: cell-based; conditions: 72 h, human colon carcinoma cells (expressing both c-KIT and PDGFR)
Method: as §1, §2

HCT116 = experiment: In vitro cell experiment (MTT), HCT116; format: cell-based; conditions: HCT-116, 72 h, human colon carcinoma cells
Method: as §1, §2

FLT-1 = FLT-1 (Homo sapiens, UniProt P17948); experiment: In vitro enzyme experiment (ELISA), FLT-1; format: biochemical; conditions: Poly (Glu, Tyr)4:1 substrate, 5 μM ATP
Sequence of FLT-1 (P17948 27-1338): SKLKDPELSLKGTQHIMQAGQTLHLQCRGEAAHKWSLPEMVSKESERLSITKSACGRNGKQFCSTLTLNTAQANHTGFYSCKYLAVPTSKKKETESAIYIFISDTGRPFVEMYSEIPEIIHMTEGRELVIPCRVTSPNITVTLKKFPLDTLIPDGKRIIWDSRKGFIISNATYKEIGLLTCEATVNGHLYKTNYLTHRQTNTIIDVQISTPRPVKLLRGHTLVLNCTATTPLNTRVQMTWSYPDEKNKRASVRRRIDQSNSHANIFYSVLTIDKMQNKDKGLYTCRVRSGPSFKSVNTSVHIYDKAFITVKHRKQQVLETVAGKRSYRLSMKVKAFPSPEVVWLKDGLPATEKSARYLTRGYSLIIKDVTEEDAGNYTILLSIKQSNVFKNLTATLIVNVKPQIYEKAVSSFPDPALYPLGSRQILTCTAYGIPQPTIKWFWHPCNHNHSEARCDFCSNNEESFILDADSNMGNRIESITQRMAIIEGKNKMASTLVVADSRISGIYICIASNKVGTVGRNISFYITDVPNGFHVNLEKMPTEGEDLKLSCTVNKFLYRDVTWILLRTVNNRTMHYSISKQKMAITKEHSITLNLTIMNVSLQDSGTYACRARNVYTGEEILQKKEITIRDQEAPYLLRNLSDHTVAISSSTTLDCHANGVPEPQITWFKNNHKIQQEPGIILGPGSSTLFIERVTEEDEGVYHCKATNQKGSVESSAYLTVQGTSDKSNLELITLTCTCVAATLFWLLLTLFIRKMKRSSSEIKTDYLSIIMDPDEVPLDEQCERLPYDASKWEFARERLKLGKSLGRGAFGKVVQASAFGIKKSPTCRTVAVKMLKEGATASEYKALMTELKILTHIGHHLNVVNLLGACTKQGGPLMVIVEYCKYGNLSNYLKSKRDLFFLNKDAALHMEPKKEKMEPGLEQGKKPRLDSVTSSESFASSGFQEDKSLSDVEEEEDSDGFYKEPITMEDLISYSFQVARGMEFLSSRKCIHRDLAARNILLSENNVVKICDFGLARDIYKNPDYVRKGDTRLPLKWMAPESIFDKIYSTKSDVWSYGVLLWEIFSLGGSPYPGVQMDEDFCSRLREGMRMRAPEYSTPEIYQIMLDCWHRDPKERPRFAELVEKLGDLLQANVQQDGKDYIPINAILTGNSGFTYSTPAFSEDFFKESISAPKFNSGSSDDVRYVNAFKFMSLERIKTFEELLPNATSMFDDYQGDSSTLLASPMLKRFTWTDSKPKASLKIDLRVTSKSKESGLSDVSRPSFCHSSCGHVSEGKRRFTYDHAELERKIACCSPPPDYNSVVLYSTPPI
Method: FLT-1: Human vascular endothelial growth factor receptor 1
as §3, §4, §5

PC-9 = experiment: In vitro cell experiment (MTT), PC-9; format: cell-based; conditions: 72 h, human non-small-cell lung carcinoma cells (EGFR1 19 exon mutation)
Method: as §1, §2

PDGFRβ = PDGFRβ (Homo sapiens, UniProt P09619); experiment: In vitro enzyme experiment (ELISA), PDGFRβ; format: biochemical; conditions: Poly (Glu, Tyr)4:1 substrate, 5 μM ATP
Method: PDGFRβ: Platelet-derived growth factor receptor β
as §3, §4, §5

3T3swiss = experiment: In vitro cell experiment (MTT), 3T3swiss; format: cell-based; conditions: Fibroblast, 72 h, mouse fibroblasts (PDGFR overexpressing)
Method: as §1, §2

SMILES | IC50 (HUVEC) [nM] | IC50 (CFPAC-1) [nM] | IC50 (A375) [nM] | IC50 (Bel-7402) [nM] | IC50 (FGFR-1) [nM] | IC50 (Eca109) [nM] | IC50 (SK-OV-3) [nM] | IC50 (A549) [nM] | IC50 (KDR) [nM] | IC50 (A431) [nM] | IC50 (SGC7901) [nM] | IC50 (EGFR) [nM] | MTD [1] [mg/kg] | IC50 (HCC827) [nM] | IC50 (RET) [nM] | IC50 (A498) [nM] | IC50 (BTK) [nM] | IC50 (H292) [nM] | IC50 (AXL) [nM] | IC50 (TT) [nM] | further results
COc1cc2c(Nc3ccc(Br)cc3F)ncnc2cc1OCCCCN1CCCC1 [Compound 30, 4-(4-bromo-2-fluoroanilino)-6-methoxy-7-(4-(pyrrolidin-1-yl)butoxy)quinazoline] | 27.5 | 5150 | 196 | 4570 | 25.8 | 5520 | 2500 | 1510 | 15.7 | 1570 | 4190 | 118 | 250 to 500 | 0.5 | 14.6 | 2880 | 261 | 43.2 | 2010 | 126 | IC50 (HT-29): 2190 nM; IC50 (HCT116): 775 nM; IC50 (FLT-1): 25.9 nM; IC50 (PC-9): 7 nM; IC50 (PDGFRβ): 247 nM; IC50 (3T3swiss): 1490 nM
COc1cc2c(Nc3ccc(Br)cc3F)ncnc2cc1OCCCCN(C)C [Compound 28, 4-(4-bromo-2-fluoroanilino)-6-methoxy-7-(4-(dimethylamino)-butoxy)quinazoline] | 20.1 | 4470 | 108 | 4900 | 17.8 | 4880 | 1830 | 1920 | 18.4 | 1360 | 3960 | 90.4 | 250 to 500 | 0.1 | 13.5 | 2270 | 278 | 66.6 | 1470 | 118 | IC50 (HT-29): 1470 nM; IC50 (HCT116): 704 nM; IC50 (FLT-1): 27.4 nM; IC50 (PC-9): 9.3 nM; IC50 (PDGFRβ): 156 nM; IC50 (3T3swiss): 1610 nM
COc1cc2c(Nc3ccc(Br)cc3F)ncnc2cc1OCCCN1CCCC1 [Compound 19, 4-(4-bromo-2-fluoroanilino)-6-methoxy-7-(3-(pyrrolidine-1-yl)propoxy)quinazoline] | 21.2 | 4080 | 112 | 3590 | 15.7 | 4650 | 1960 | 1430 | 10.6 | 1060 | 2760 | 66.3 | 250 to 500 | 0.1 | 9.1 | 2060 | 220 | 38.2 | 1550 | 110 | IC50 (HT-29): 1660 nM; IC50 (HCT116): 561 nM; IC50 (FLT-1): 25.6 nM; IC50 (PC-9): 6.3 nM; IC50 (PDGFRβ): 113 nM; IC50 (3T3swiss): 1090 nM
COc1cc2c(Nc3ccc(F)c(Cl)c3)ncnc2cc1OCCCN(C)C [Compound 38, 4-(3-chloro-4-fluoroanilino)-6-methoxy-7-(3-(dimethylamino)-propoxy)quinazoline] | 26.5 | 5790 | 178 | 5940 | 28.9 | 5930 | 2060 | 2360 | 17.6 | 1460 | 3850 | 101 | 125 to 250 | 0.7 | 19.8 | 2260 | 325 | 45.2 | 2150 | 115 | IC50 (HT-29): 2660 nM; IC50 (HCT116): 621 nM; IC50 (FLT-1): 35.6 nM; IC50 (PC-9): 7.7 nM; IC50 (PDGFRβ): 268 nM; IC50 (3T3swiss): 1560 nM
